Values after ≈ are worked out from the molar mass of the structure shown. Read-outs that look alike come from different tables or passages of the source. Where a SMILES comes first, the peptide text is derived from it. Bridges are numbered along the chain shown (N, C = ends). The star is where a group is joined. Lauroyl = CCCCCCCCCCCC(=O)*; Octanoyl = CCCCCCCC(=O)*
Legend:
E. coli (Ec, ATCC 25922) = assay: microbe, parasite or virus in culture; format: cell-based, Escherichia coli; settings: for MIC: Escherichia coli, ATCC25922
Method in brief: (§1)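 Cultures grown in Mueller–Hinton broth were adjusted by OD600 to 2.5–3 × 10^4 CFU/mL and mixed with two-fold peptide dilutions from 256 to 1 µg/mL. Plates were incubated at 35 °C with OD595 monitored every hour for 24 h.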

Rhodotorula sp. (Rh) = assay: microbe, parasite or virus in culture; format: cell-based; settings: 48 h
Method in brief: (§2)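 Overnight cultures in potato dextrose broth with 2% glucose at 25–30 °C were diluted to approx. 4 × 10^5 spores/mL and mixed 1:1 with two-fold peptide dilutions plated at 256 to 1 µg/mL. After 48 h at room temperature, OD600 was read. MIC was the lowest concentration giving OD below 10% of the growth control, in triplicate.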

A. pullulans (Ap) = assay: microbe, parasite or virus in culture; format: cell-based, Aurobasidium pollulans; settings: 48 h
Method in brief: as §2

all bacterial strains = assay: Antibacterial MIC assay, all bacterial strains together (range or geometric mean); format: cell-based; settings: for GM (geometric mean of the MIC values against all bacterial strains): Table 1, six bacterial strains; for GM of MIC Tot. bact.: Table S3, all bacterial test strains, MIC >256 set to 256
Method in brief: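 Broth microdilution in Mueller–Hinton broth against B. subtilis, C. glutamicum, S. aureus, S. epidermidis RP62A, E. coli and P. aeruginosa; inoculum 2.5–3 × 10^4 CFU/mL, 35 °C, OD595 read hourly for 24 h. MIC: lowest peptide concentration giving OD below 10% of growth control; geometric mean across strains, triplicate.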

E. coli K12 = assay: Bacterial biosensor membrane integrity assay (luciferase, D-luciferin influx); format: cell-based, Escherichia coli
Excerpt: (§3) Changes in light emission of sensor bacteria constitutively expressing the bacterial lux operon or a eukaryotic luciferase can be used as a proxy for viability and membrane integrity, respectively. Light production of the viability biosensors represents metabolic activity of the bacteria. For the membrane integrity assay on the other hand, light production depends on the influx of the externally added D-luciferin, which at neural pH will not readily pass the intact plasma membrane. An initial increase in light production therefore corresponds with damage to the plasma membrane and a concomitant influx of D-luciferin, while a subsequent drop in light emission indicates diminishing ATP reserves of the dying sensor bacteria.
(§4) A membrane integrity assay was performed using two bacterial biosensors, B. subtilis 168 (ATCC 23857) and E. coli K12 (ATCC MC1061). Both strains carry the pCSS962 plasmid that contains a eukaryotic luciferase gene (lucGR), which originate from the click beetle Pyrophorus plagiophthalamus. The assay was performed as described previously. […] D-luciferin potassium salt (Synchem Inc., Elk Grove Village, IL, USA) was added to the cell suspension at a final concentration of 1 mM. Two-fold dilutions (final assay concentration of 50–1.56 µg/mL) of peptides dissolved in Milli-Q water were prepared and added (10 µL per well) to black round-bottom 96-well microtiter plates (Nunc). Milli-Q water served as a negative control used for the normalization purpose and CHX, having known membranolytic activity, was used as a positive control. The plates were loaded into a Synergy H1 Hybrid Reader and the background luminescence was monitored before aliquots (90 µL) of the cell suspension with D-luciferin were added, one well at the time, by an automatic injector. Light emission was recorded every second for 3 min. Each study was performed at least three times independently, and the figures show a representative dataset.

S. aureus (ATCC 9144) = assay: Bacterial killing experiment (CFU count after MIC assay); format: cell-based, Staphylococcus aureus
Description: A killing experiment was performed on selected lipopeptides by using actively growing cultures of S. aureus (ATCC 9144) and E. coli (ATCC 25922). The procedure was performed as previously described. […] The number of colony-forming units (CFU) was determined after 24 h of incubation at 37 °C. The tests were performed in triplicate.

[1] = test system: Gram-positive bacterial strains; settings: Table S3; MIC >256 set to 256
Method in brief: as §1

[2] = test system: fungi (A. pullulans, C. albicans, Rhodotorula sp.); assay: Antifungal MIC assay, all fungi together (range or geometric mean); format: cell-based; settings: Table S3; MIC >128 set to 128
Method in brief: as §2

B. subtilis 168 = assay: Bacterial biosensor membrane integrity assay (luciferase, D-luciferin influx); format: cell-based, Bacillus subtilis; settings: for time of membranolytic action (luminescence peak not detectable): B. subtilis 168, 25 µg/mL and 50 µg/mL
Excerpt: as §3, §4

[3] = at half-MIC, compared to growth control

Row | Structure (SMILES) | Antimicrobial Activity (MIC) Fungi Rh (Rhodotorula sp. (Rh)) | Antimicrobial Activity (MIC) Fungi Ap (A. pullulans (Ap)) | GM (geometric mean of the MIC values against all bacterial strains) (all bacterial strains) | GM of MIC Tot. bact. (all bacterial strains) | colony-forming units (CFU) after treatment (S. aureus (ATCC 9144); at MIC (or above), 24 h) | colony-forming units (CFU) after treatment (S. aureus (ATCC 9144); [3]) | GM of MIC G+ [1] | GM of MIC Fungi [2] | time of membranolytic action (luminescence peak not detectable) (B. subtilis 168) | also measured
1 | CCCCCCCCCCCC(=O)N[C@H]1CSSC[C@@H](C(=O)N[C@@H](CCCCN)C(=O)N[C@@H](CC(C)C)C(N)=O)NC(=O)[C@H](CCCCN)NC(=O)[C@H](Cc2c[nH]c3ccccc23)NC(=O)CNC(=O)CNC(=O)[C@@H]2CCCN2C(=O)[C@H](CCCCN)NC(=O)[C@H](CCCCN)NC(=O)CNC1=O [Peptide C12-cTurg-1, C12 -(CGKKPGGWKC)KL-NH2] (Lauroyl-CGKKPGGWKCKL-NH2; disulfide 1-10) | 4 µg/mL | 32 µg/mL | 4 µg/mL | 4 µg/mL | No CFU were observed | slightly less colony-forming units (CFU) were formed | 3 µg/mL | 20 µg/mL | < 3 s | MIC E. coli ATCC 25922 (from Table 1) (E. coli (Ec, ATCC 25922); ATCC 25922, 2 h): 2 to 4 µg/mL; Antimicrobial Activity (MIC) Gram − Ec (E. coli (Ec, ATCC 25922); ATCC 25922, 24 h): 4 µg/mL; effect in membrane integrity assay (E. coli K12; E. coli K12, 25 µg/mL): further delayed response; rise in luminescence in membrane integrity assay (E. coli K12; E. coli K12, 50 µg/mL, delayed compared to chlorhexidine): 3.5 fold; effect in membrane integrity assay (E. coli K12; E. coli K12, concentrations lower than 25 µg/mL): no effect; effect on membrane integrity (B. subtilis 168; B. subtilis 168, within 3 min): rapid and strong membrane disruptive effect
2 | CCCCCCCC(=O)N[C@H]1CSSC[C@@H](C(=O)N[C@@H](CCCCN)C(=O)N[C@@H](CC(C)C)C(N)=O)NC(=O)[C@H](CCCCN)NC(=O)[C@H](Cc2c[nH]c3ccccc23)NC(=O)CNC(=O)[C@H](Cc2c[nH]c3ccccc23)NC(=O)[C@H](Cc2c[nH]c3ccccc23)NC(=O)[C@H](CCCCN)NC(=O)[C@H](CCCCN)NC(=O)CNC1=O [Peptide C8-cTurg-2, C8- (CGKKWWGWKC)KL-NH2] (Octanoyl-CGKKWWGWKCKL-NH2; disulfide 1-10) | 4 µg/mL | 16 µg/mL | 4 µg/mL | 4 µg/mL | No CFU were observed | slightly less colony-forming units (CFU) were formed | 3 µg/mL | 13 µg/mL | < 3 s | effect in membrane integrity assay (E. coli K12; E. coli K12, 50 µg/mL): even further delayed rise in peak luminescence
3 | [H]/N=C(\N/C(=N/[H])NCCCCCCNC(=N)NC(=N)Nc1ccc(Cl)cc1)Nc1ccc(Cl)cc1 [Chlorhexidine, reference compound] | – | – | – | – | – | – | – | – | – | MIC (E. coli (Ec, ATCC 25922); E. coli ATCC 25922, 24 h, read-out: Antimicrobial Activity (MIC) Gram − Ec): 1.6 µg/mL (≈ 3.17 µM); MIC (E. coli (Ec, ATCC 25922); Table 2, laboratory strain, read-out: MIC E. coli ATCC 25922 (from Table 1)): 1.6 µg/mL (≈ 3.17 µM); MIC (Rhodotorula sp. (Rh); Rhodotorula sp., read-out: Antimicrobial Activity (MIC) Fungi Rh): 1 µg/mL; MIC (A. pullulans (Ap); Aureobasidium pullulans, A. pullulans, read-out: Antimicrobial Activity (MIC) Fungi Ap): 1 µg/mL; MIC (all bacterial strains; read-out: GM (geometric mean of the MIC values against all bacterial strains)): 20 µg/mL (≈ 39.6 µM)

— paper PMC9696794, “Synthesis and Antimicrobial Activity of Short Analogues of the Marine Antimicrobial Peptide Turgencin A: Effects of SAR Optimizations, Cys-Cys Cyclization and Lipopeptide Modifications” (International Journal of Molecular Sciences, 2022)
